This note sets out measurements from patent US10604523B2, “1-aryl-4-methyl-[1,2,4]triazolo[4,3-a]quinoxaline derivatives” (Janssen Pharmaceutica NV, priority 2011, dated 2020).

Structures are written as SMILES. Read-outs that look alike come from different tables or passages of the source.

Experiment [1] deals with T1, Human recombinant PDE2A (hPDE2A) (Homo sapiens, UniProt O00408).
T1 construct: made in house; host or cells: Sf9 insect cells (baculovirus)
The experiment in a line: In vitro assay PDE2A (SPA, 3H-cGMP). The experiment is classed as biochemical.
Protocol: Tested compounds were dissolved and diluted in 100% DMSO to a concentration 100 fold of the final concentration in the assay. Compound dilutions (0.4 μl) were added in 384 well plates to 20 μl of incubation buffer (50 mM Tris pH 7.8, 8.3 mM MgCl2, 1.7 mM EGTA). 10 μl of hPDE2A enzyme in incubation buffer was added and the reaction was started by addition of 10 μl substrate to a final concentration of 10 μM cGMP and 0.01 μCi ^3H-cGMP. The reaction was incubated for 45 minutes at room temperature. […] After sedimentation of the beads during 30 minutes the radioactivity was measured in a Perkin Elmer Topcount scintillation counter and results were expressed as cpm. For blanc values the enzyme was omitted from the reaction and replaced by incubation buffer. Control values were obtained by addition of a final concentration of 1% DMSO instead of compound.

Experiment [2] deals with T2, Rat recombinant PDE10A (rPDE10A2) (Rattus norvegicus, UniProt Q9QYJ6).
T2 construct: made in house; host or cells: Sf9 insect cells (baculovirus)
T2 sequence (Q9QYJ6 1-794): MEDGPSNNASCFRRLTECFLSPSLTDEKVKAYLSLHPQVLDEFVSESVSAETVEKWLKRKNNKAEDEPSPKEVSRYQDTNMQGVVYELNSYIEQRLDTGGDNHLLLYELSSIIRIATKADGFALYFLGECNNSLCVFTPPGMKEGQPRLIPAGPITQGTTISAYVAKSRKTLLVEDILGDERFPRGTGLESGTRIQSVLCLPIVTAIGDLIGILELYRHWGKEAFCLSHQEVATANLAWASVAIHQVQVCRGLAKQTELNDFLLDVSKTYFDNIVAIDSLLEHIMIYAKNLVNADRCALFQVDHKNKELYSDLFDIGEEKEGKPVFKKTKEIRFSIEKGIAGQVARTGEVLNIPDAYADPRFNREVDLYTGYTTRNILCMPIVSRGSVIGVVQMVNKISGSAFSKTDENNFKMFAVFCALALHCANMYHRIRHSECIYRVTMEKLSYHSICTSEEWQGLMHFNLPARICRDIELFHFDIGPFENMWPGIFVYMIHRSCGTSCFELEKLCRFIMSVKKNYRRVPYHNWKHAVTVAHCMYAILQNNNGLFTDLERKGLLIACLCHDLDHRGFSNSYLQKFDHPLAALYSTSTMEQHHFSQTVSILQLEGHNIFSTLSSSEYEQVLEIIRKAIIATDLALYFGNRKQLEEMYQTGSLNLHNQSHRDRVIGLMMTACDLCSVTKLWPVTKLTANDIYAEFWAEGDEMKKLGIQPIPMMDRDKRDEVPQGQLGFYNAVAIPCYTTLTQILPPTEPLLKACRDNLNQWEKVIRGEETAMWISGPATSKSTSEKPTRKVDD
As to the kind of experiment: In vitro assay PDE10A (SPA, 3H-cAMP). The experiment is classed as biochemical.

Experiment [3] has as its system Apomorphine-induced agitation. As to the kind of experiment: Reversal of Apomorphine-induced Agitation in Rats (APO). In kind it is in vivo, rat. The following applies: for SC Dose at max effect / SC Max effect (cumulative agitation score over 60 min) / SC LAD (lowest active dose): subcutaneous route; for SC Max effect (cumulative agitation score over 60 min) / PO Max effect (cumulative agitation score over 60 min): apomorphine 1.0 mg/kg i.v.; for SC LAD (lowest active dose) / PO LAD (lowest active dose): lowest dose at which ≥67% tested animals respond.
Protocol: Apomorphine (1.0 mg/kg, i.v.)-induced agitation was scored every 5 min over the first hour after injection of apomorphine. The score system was: (3) pronounced, (2) moderate, (1) slight, and (0) absent. […] For the present purpose, the cumulative agitation score over the whole 60-min observation period was used as a measure to describe the maximum effect (Max effect).

[4] abbreviates: read-out: pIC50 PDE2 (converted).
Setting [5] is: read-out: PIC50 PDE10 (converted).

T1 sequence (O00408 whole entry): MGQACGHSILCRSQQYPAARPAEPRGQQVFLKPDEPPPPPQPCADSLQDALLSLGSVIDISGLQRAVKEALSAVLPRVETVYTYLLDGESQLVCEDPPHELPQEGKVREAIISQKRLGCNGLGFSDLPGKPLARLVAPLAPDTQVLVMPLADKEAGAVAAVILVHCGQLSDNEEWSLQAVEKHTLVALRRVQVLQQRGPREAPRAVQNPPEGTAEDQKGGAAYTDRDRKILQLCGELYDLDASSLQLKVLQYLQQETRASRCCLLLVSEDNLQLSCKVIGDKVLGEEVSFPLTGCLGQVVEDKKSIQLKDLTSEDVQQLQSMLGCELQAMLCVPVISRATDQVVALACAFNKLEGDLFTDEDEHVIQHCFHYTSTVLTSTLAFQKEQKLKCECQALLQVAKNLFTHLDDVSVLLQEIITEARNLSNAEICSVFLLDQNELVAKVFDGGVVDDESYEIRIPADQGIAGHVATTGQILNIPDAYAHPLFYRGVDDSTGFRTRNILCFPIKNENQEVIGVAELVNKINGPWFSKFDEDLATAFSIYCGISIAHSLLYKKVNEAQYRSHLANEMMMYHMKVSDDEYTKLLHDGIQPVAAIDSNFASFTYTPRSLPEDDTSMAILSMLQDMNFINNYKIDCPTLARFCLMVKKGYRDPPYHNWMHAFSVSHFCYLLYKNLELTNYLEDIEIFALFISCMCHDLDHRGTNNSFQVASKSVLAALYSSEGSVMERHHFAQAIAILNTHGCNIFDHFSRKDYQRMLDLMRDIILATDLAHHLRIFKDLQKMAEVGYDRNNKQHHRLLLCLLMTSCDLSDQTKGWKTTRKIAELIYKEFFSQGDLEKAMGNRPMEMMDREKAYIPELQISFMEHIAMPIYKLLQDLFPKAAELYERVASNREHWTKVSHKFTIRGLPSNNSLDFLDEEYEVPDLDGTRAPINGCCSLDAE

Take `Cc1ncccc1-c1nnc2c(C)nc3ccc(CN4CCOCC4)cc3n12` [Compound B-118]: the IC50 in experiment [1] (setting [4]) is 25.7 nM. In addition, the IC50 in experiment [2] (setting [5]) is 117 nM. In experiment [3], the SC Dose at max effect was found to be 10 mg/kg, the “SC Max effect (cumulative agitation score over 60 min)” value was 17 and the SC LAD (lowest active dose) was 10 mg/kg.

In the case of `CCOc1ccc(Cl)c(-c2nnc3c(C)nc4ccc(N5CCN(C)CC5)cc4n23)c1` [Compound B-102], in experiment [1] (setting [4]), the IC50 was 18.2 nM. Also, in experiment [2] (setting [5]), the IC50 is 162 nM. Moreover, in experiment [3], the SC Dose at max effect stood at 10 mg/kg, the “SC Max effect (cumulative agitation score over 60 min)” value was determined as 21 and the SC LAD (lowest active dose) was greater than 10 mg/kg.

Consider `Cc1nc2ccc(OC(C)(F)F)cc2n2c(-c3ccccc3Cl)nnc12` [Compound B-25, 1-(2-Chlorophenyl)-8-(1,1-difluoroethoxy)-4-methyl[1,2,4]triazolo[4,3-a]-quinoxaline], for which, in experiment [1] (setting [4]), the IC50 is 3.89 nM. Also, the IC50 in experiment [2] (setting [5]) was 15.5 nM. In experiment [3], the PO Dose at Max Effect was determined as 10 mg/kg, the “PO Max effect (cumulative agitation score over 60 min)” value amounted to 19 and the PO LAD (lowest active dose) came to 10 mg/kg.

As for `Cc1nc2ccc(C(=O)NCc3ccccn3)cc2n2c(-c3cc(F)ccc3Cl)nnc12` [Compound B-39], in experiment [1] (setting [4]), the IC50 is 1 nM. Also, the IC50 in experiment [2] (setting [5]) is 24 nM. Besides, in experiment [3], the PO Dose at Max Effect amounted to 10 mg/kg, the “PO Max effect (cumulative agitation score over 60 min)” value was 21 and the PO LAD (lowest active dose) was greater than 10 mg/kg.

For the compound `COc1cc(NC(=O)c2ccc3nc(C)c4nnc(-c5ccccc5Cl)n4c3c2)cc(OC)c1OC` [Compound B-49], the IC50 in experiment [1] (setting [4]) is 2.34 nM. The IC50 in experiment [2] (setting [5]) was 77.6 nM. In experiment [3], the PO Dose at Max Effect came out at 10 mg/kg, the “PO Max effect (cumulative agitation score over 60 min)” value came out at 24 and the PO LAD (lowest active dose) was greater than 10 mg/kg.

With `CCOc1ccc(Cl)c(-c2nnc3c(C)nc4ccc(CN5CCC(F)CC5)cc4n23)c1` [Compound B-140], the IC50 in experiment [1] (setting [4]) is 34.7 nM. Besides, in experiment [2] (setting [5]), the IC50 was 282 nM. Moreover, in experiment [3], the SC Dose at max effect is 10 mg/kg, the “SC Max effect (cumulative agitation score over 60 min)” value is 24 and the SC LAD (lowest active dose) was greater than 10 mg/kg.

Turning to `Cc1nc2ccc(CN3CCN(C)CC3)cc2n2c(-c3ccccc3Cl)nnc12` [Compound B-73], in experiment [1] (setting [4]), the IC50 was 6.76 nM. For the same compound, the IC50 in experiment [2] (-log IC50 expressed in mol/L, rPDE10A2, 60 nM cAMP, read-out: PIC50 PDE10 (converted)) was 67.6 nM. Also, in experiment [3], the SC Dose at max effect amounted to 10 mg/kg, the “SC Max effect (cumulative agitation score over 60 min)” value is 19 and the SC LAD (lowest active dose) stood at 10 mg/kg.

Consider `Cc1nc2ccc(C(=O)NCc3ccccc3)cc2n2c(-c3ccccc3Cl)nnc12` [Compound B-34], for which the IC50 in experiment [1] (setting [4]) is 0.372 nM. Further, the IC50 in experiment [2] (setting [5]) was 12 nM. In experiment [3], the PO Dose at Max Effect worked out at 2.5 mg/kg, the “PO Max effect (cumulative agitation score over 60 min)” value turned out to be 22 and the PO LAD (lowest active dose) is greater than 2.5 mg/kg.

Turning to `CCOc1ccc(Cl)c(-c2nnc3c(C)nc4ccc(CN5CCC(O)CC5)cc4n23)c1` [Compound B-128], in experiment [1] (setting [4]), the IC50 was 28.8 nM. Further, in experiment [2] (setting [5]), the IC50 was 229 nM. Moreover, in experiment [3], the SC Dose at max effect stood at 10 mg/kg, the “SC Max effect (cumulative agitation score over 60 min)” value was 21 and the SC LAD (lowest active dose) is greater than 10 mg/kg.

In the case of `CNC(=O)c1ccc2nc(C)c3nnc(-c4ccccc4Cl)n3c2c1` [Compound B-46], in experiment [1] (setting [4]), the IC50 is 1.95 nM. In addition, the IC50 in experiment [2] (setting [5]) was 20 nM. Also, in experiment [3], the PO Dose at Max Effect amounted to 10 mg/kg, the “PO Max effect (cumulative agitation score over 60 min)” value worked out at 21 and the PO LAD (lowest active dose) is greater than 10 mg/kg.

Turning to `Cc1nc2ccc(C(=O)NCc3ccccn3)cc2n2c(-c3ccc(Cl)cc3Cl)nnc12` [Compound B-108], the IC50 in experiment [1] (setting [4]) is 20.4 nM. In addition, the IC50 in experiment [2] (setting [5]) is 36.3 nM. In addition, in experiment [3], the PO Dose at Max Effect was found to be 10 mg/kg, the “PO Max effect (cumulative agitation score over 60 min)” value is given as 19 and the PO LAD (lowest active dose) was greater than 10 mg/kg.

As to `Cc1nc2ccc(C(=O)N(C)Cc3ccccc3)cc2n2c(-c3ccccc3)nnc12` [Compound B-104], in experiment [1] (setting [4]), the IC50 is 19.1 nM. Also, in experiment [2] (setting [5]), the IC50 was 204 nM. In addition, in experiment [3], the SC Dose at max effect was found to be 2.5 mg/kg, the “SC Max effect (cumulative agitation score over 60 min)” value stood at 21 and the SC LAD (lowest active dose) is greater than 2.5 mg/kg.

Consider `Cc1ncccc1-c1nnc2c(C)nc3ccc(OC(F)(F)F)cc3n12` [Compound B-168], for which, in experiment [1] (setting [4]), the IC50 is 97.7 nM. The IC50 in experiment [2] (setting [5]) is 174 nM. In addition, in experiment [3], the PO Dose at Max Effect was determined as 10 mg/kg, the “PO Max effect (cumulative agitation score over 60 min)” value was determined as 16 and the PO LAD (lowest active dose) turned out to be 10 mg/kg.

For `Cc1nc2ccc(C(=O)NCCN3CCCC3)cc2n2c(-c3ccccc3Cl)nnc12` [Compound B-48], in experiment [1] (setting [4]), the IC50 is 2.09 nM. Besides, the IC50 in experiment [2] (setting [5]) was 61.7 nM. In addition, in experiment [3], the SC Dose at max effect was determined as 10 mg/kg, the “SC Max effect (cumulative agitation score over 60 min)” value is recorded as 24 and the SC LAD (lowest active dose) was greater than 10 mg/kg.

In the case of `Cc1nc2ccc(CN3CCOC(CO)C3)cc2n2c(-c3ccccc3Cl)nnc12` (stereo not drawn) [Compound B-55], the IC50 in experiment [1] was 3.47 nM. Also, the IC50 in experiment [2] is 10.7 nM. Also, in experiment [3], the SC Dose at max effect was 10 mg/kg, the “SC Max effect (cumulative agitation score over 60 min)” value worked out at 22 and the SC LAD (lowest active dose) was greater than 10 mg/kg.

In the case of `CCOc1ccc(Cl)c(-c2nnc3c(C)nc4ccc(CNc5cccnc5)cc4n23)c1` [Compound B-103], the IC50 in experiment [1] (setting [4]) is 18.6 nM. Further, the IC50 in experiment [2] (setting [5]) was 178 nM. In experiment [3], the SC Dose at max effect was determined as 10 mg/kg, the “SC Max effect (cumulative agitation score over 60 min)” value is reported as 21 and the SC LAD (lowest active dose) is greater than 10 mg/kg.

`Cc1nc2ccc(C(=O)NC3CCN(C)CC3)cc2n2c(-c3ccccc3Cl)nnc12` [Compound B-47]: the IC50 in experiment [1] (setting [4]) was 2.04 nM. Also, the IC50 in experiment [2] (setting [5]) is 145 nM. Further, in experiment [3], the SC Dose at max effect was found to be 10 mg/kg, the “SC Max effect (cumulative agitation score over 60 min)” value is recorded as 22 and the SC LAD (lowest active dose) is greater than 10 mg/kg.

With `Cc1nc2ccc(CN3CCOC(CCF)C3)cc2n2c(-c3ccccc3Cl)nnc12` (stereo not drawn) [Compound B-89], the IC50 in experiment [1] (setting [4]) was 11.7 nM. Further, the IC50 in experiment [2] (setting [5]) was 50.1 nM. Also, in experiment [3], the SC Dose at max effect was 5 mg/kg, the “SC Max effect (cumulative agitation score over 60 min)” value amounted to 24 and the SC LAD (lowest active dose) was greater than 5 mg/kg.

As to `Cc1nc2ccc(C(=O)NCc3cccc(F)n3)cc2n2c(-c3ccccc3Cl)nnc12` [Compound B-32], the IC50 in experiment [1] (setting [4]) is 0.251 nM. The IC50 in experiment [2] (setting [5]) is 6.61 nM. In experiment [3], the PO Dose at Max Effect worked out at 10 mg/kg, the “PO Max effect (cumulative agitation score over 60 min)” value was 22 and the PO LAD (lowest active dose) was greater than 10 mg/kg.

On to `COc1ccc(-c2nnc3c(C)nc4ccc(C(=O)NCc5ccccn5)cc4n23)c(Cl)c1` [Compound B-74], for which the IC50 in experiment [1] (setting [4]) was 6.92 nM. Further, the IC50 in experiment [2] (setting [5]) is 129 nM. Besides, in experiment [3], the PO Dose at Max Effect was 10 mg/kg, the “PO Max effect (cumulative agitation score over 60 min)” value is 21 and the PO LAD (lowest active dose) was greater than 10 mg/kg.

On to `COc1cc(CNC(=O)c2ccc3nc(C)c4nnc(-c5ccccc5Cl)n4c3c2)cc(OC)c1OC` [Compound B-66], for which the IC50 in experiment [1] (setting [4]) is 5.89 nM. In addition, the IC50 in experiment [2] (setting [5]) was 37.2 nM. In experiment [3], the PO Dose at Max Effect came to 10 mg/kg, the “PO Max effect (cumulative agitation score over 60 min)” value is reported as 21 and the PO LAD (lowest active dose) was greater than 10 mg/kg.
